Measurements reported in PubChem BioAssay AID1996.
≈ marks a conversion by molar mass, not a printed value.

Settings: buffer; pH 7.4; 200.0 µM

| Compound | solubility kinetic |
| --- | --- |
| CCN(C(=O)COC(=O)c1ccc2c(c1)OCO2)c1ccccc1 | > 49.1 µg/mL |
| Cc1ccccc1-c1noc(C(C)NC(=O)c2ccco2)n1 (stereo unspecified) | 37.5 µg/mL (≈ 126 µM) |
| COc1ccccc1-c1nnc(SCC(=O)NC2CCCCC2)n1N | > 54.2 µg/mL |
| Cc1cccc(NC(=O)CSc2ncnc3sc(C)cc23)c1 | 0.7 µg/mL (≈ 2.12 µM) |
| CCN(C(=O)COC(=O)CCC(=O)c1cccs1)c1ccccc1 | > 51.8 µg/mL |
| CC(=O)c1cccc(NC(=O)CC(C)n2ccnc2)c1 (stereo unspecified) | > 40.7 µg/mL |
| Cc1ccc(CCNC(=O)CNC(=O)c2cccs2)cc1 | 40.3 µg/mL (≈ 133 µM) |
| COc1ccc(NC(=S)NC(=O)/C=C/c2ccco2)cc1 | 1.2 µg/mL (≈ 3.97 µM) |
| Cc1cccc(C(=O)N2CCCC(Nc3ccc(C)c(C)c3)C2)n1 (stereo unspecified) | 42.1 µg/mL (≈ 130 µM) |
| O=C(CN1C(=O)c2ccccc2S1(=O)=O)Nc1cccc(S(=O)(=O)N2CCOCC2)c1 | > 69.8 µg/mL |
| CC(C1CC1)N(C(=O)c1ccccc1[N+](=O)[O-])c1ccccc1 (stereo unspecified) | 13 µg/mL (≈ 41.9 µM) |
| Cc1ccc(C(=O)N2CCC(Cc3ccccc3)CC2)cc1[N+](=O)[O-] | 10.3 µg/mL (≈ 30.4 µM) |
| O=C(O)c1ccc(Nc2cccc(F)c2)c([N+](=O)[O-])c1 | > 41.4 µg/mL |
| CC(C)CCNC(=O)C(=O)Nc1ccccc1 | 2.6 µg/mL (≈ 11.1 µM) |
| O=C(c1cccc(S(=O)(=O)NCc2ccccc2)c1)N1CCN(c2ccccc2)CC1 | 2.4 µg/mL (≈ 5.51 µM) |
| CC(C)Cc1nc2sc3c(SCC(N)=O)ncnc3c2c2c1CCC2 | 0.3 µg/mL (≈ 0.805 µM) |
| O=C(c1ccccc1)C1CCN(C(=O)c2ccc(Cl)cc2)CC1 | > 49.2 µg/mL |
| CC1CCN(C(=O)CSCC(=O)O)CC1 | > 34.7 µg/mL |
| Cc1ccnc(SCC(=O)Nc2cc(C)on2)n1 | > 39.6 µg/mL |
| CCCn1c(C(O)c2cccc(OC)c2)nc2ccccc21 (stereo unspecified) | 39.4 µg/mL (≈ 133 µM) |
| CCN1C(=O)c2ccc(C(=O)NCc3ccco3)cc2C1=O | > 44.7 µg/mL |
| CC(C)(C)c1ccc(C(CC(=O)O)NC(=O)Cc2ccccc2)cc1 (stereo unspecified) | 49.3 µg/mL (≈ 145 µM) |
| O=C(NCCC(=O)N1CCCCC1)c1ccc(Br)cc1 | > 50.9 µg/mL |
| O=C(Cc1c[nH]c2ccccc12)NCc1ccco1 | > 38.1 µg/mL |
| Cl.NC(N)=NC(N)=NCCc1ccccc1 | > 36.3 µg/mL |

| Compound | solubility kinetic |
| --- | --- |
| CCOC(=O)CSc1nc(C)cc(C)c1C(N)=O | 35.6 µg/mL (≈ 133 µM) |
| CCOC(=O)c1nc2c(=O)n(C)c(=O)n(C)c2n(C)c1=O | > 44.1 µg/mL |
| O=C(CNC(=O)c1ccccc1Cl)Nc1ccncc1 | > 43.5 µg/mL |
| CCOC(=O)Cc1ccc(NC(=O)c2cccc([N+](=O)[O-])c2)cc1 | 2.6 µg/mL (≈ 7.92 µM) |
| CC(=O)c1ccc(-n2cc(C#N)c(=O)[nH]c2=O)cc1 | 34.7 µg/mL (≈ 136 µM) |
| COc1cccc(-c2ocnc2C(=O)Nc2ccc3c(c2)CCC3)c1 | < 0.4 µg/mL |
| S=C1NCN(Cc2ccccc2)CN1C1CCCCC1 | 4.5 µg/mL (≈ 15.5 µM) |
| CCCc1nc(NCCO)c(C#N)c2c1CCCC2 | > 38.9 µg/mL |
| CN1CCN(C(=O)C23CC4CC(C)(CC(C)(C4)C2)C3)CC1.Cl | 47.8 µg/mL |
| Cc1ccc(C)c(S(=O)(=O)N2CCN(c3ncnc4sccc34)CC2)c1 | 5.6 µg/mL (≈ 14.4 µM) |
| COc1ccc(CNc2ccc3c(c2)ncn3C)cc1OC | 29.7 µg/mL (≈ 99.9 µM) |
| O=c1cnnc(Nc2ccccc2F)[nH]1 | > 30.9 µg/mL |
| Cc1ccc(-c2nc3cc(N)ccc3o2)cc1Br | 0.3 µg/mL (≈ 0.99 µM) |
| Cc1cc(SCC(=O)NC2CC2)nc2ccccc12 | > 40.9 µg/mL |
| FC(F)(F)c1ccccc1CNCc1ccc2c(c1)OCO2 | 25.8 µg/mL (≈ 83.4 µM) |
| Cc1cccc(C)c1OCCCN1CCOCC1.Cl | 35.5 µg/mL |
| CCOC(OCC)c1ccc(/C=C\c2nccc(N)n2)cc1 | 13.7 µg/mL (≈ 45.8 µM) |
| Cc1cccc(-n2c(C)c(C)c3c(N)ncnc32)c1 | 32.7 µg/mL (≈ 130 µM) |
| Cc1ccc(O)c(CNc2nc3ccccc3n2C(C)C)c1 | 0.6 µg/mL (≈ 2.03 µM) |
| O=C(OCc1cccc(F)c1)c1ccc2c(=O)n3c(nc2c1)CCC3 | 18.5 µg/mL (≈ 54.7 µM) |
| O=C(Nc1ccc(F)cc1)c1cccnn1 | > 32.6 µg/mL |
| Cc1ccccc1CN1CCN(CC(=O)NCc2ccccc2)CC1 | > 50.6 µg/mL |
| CN(CC(=O)Nc1cccc(F)c1)C(=O)c1sc2ccccc2c1Cl | 23 µg/mL (≈ 61 µM) |
| Nc1cc(N)nc(SCCc2ccccc2)n1 | > 36.9 µg/mL |
| CC(=O)c1nc2ccccc2n1Cc1ccccc1 | 14.5 µg/mL (≈ 57.9 µM) |

| Compound | solubility kinetic |
| --- | --- |
| C=CCN1CCN(C(=O)CCc2ccccc2)CC1 | 35.6 µg/mL (≈ 138 µM) |
| O=C(Nc1cccc(S(=O)(=O)NC2=NCCC2)c1)c1ccc(F)cc1 | > 54.2 µg/mL |
| Cc1ccc(C(=O)Nc2cccnc2Cl)cc1Cl | 32.9 µg/mL (≈ 117 µM) |
| COCCNc1cnn(-c2ccccc2)c(=O)c1Cl | > 42 µg/mL |
| COc1ccc(CNC(=O)C(=O)NCc2cccnc2)cc1 | 20.9 µg/mL (≈ 69.8 µM) |
| O=C(Nn1cnc2ccccc2c1=O)c1ccc([N+](=O)[O-])cc1 | > 46.5 µg/mL |
| CC(=O)c1ccc(S(=O)(=O)NCCC(=O)NC2CCN(Cc3ccccc3)CC2)cc1.O=C(O)C(=O)O | > 80 µg/mL |
| Clc1ccc(-c2cc(CN3CCOCC3)no2)cc1 | > 41.8 µg/mL |
| CCc1ccc(S(=O)(=O)Nc2ccccn2)cc1 | > 39.3 µg/mL |
| C(=N\NC1=NCCN1)/c1ccncc1.Cl | > 39.3 µg/mL |
| O=c1cc(COc2ccc(Cl)c(Cl)c2)nc2sccn12 | 1.1 µg/mL (≈ 3.36 µM) |
| CC(C)CCNS(=O)(=O)c1cc2c3c(c1)CCN3C(=O)CC2 | 46 µg/mL (≈ 143 µM) |
| O=c1[nH]cnc2c1c(-c1ccccc1)cn2-c1cccc(Cl)c1 | 0.3 µg/mL (≈ 0.932 µM) |
| NC(=S)c1ncc(C(F)(F)F)cc1Cl | 30.4 µg/mL (≈ 126 µM) |
| CCNC(=O)C(CCSC)NS(=O)(=O)c1ccc(C)cc1 (stereo unspecified) | > 49.6 µg/mL |
| O=C(Cc1ccccc1)Nc1nccs1 | > 32.7 µg/mL |
| COc1ccc(Nc2ncnc3ccc(Br)cc23)c(OC)c1 | 7.3 µg/mL (≈ 20.3 µM) |
| O=C(NC(=S)NNC(=O)c1ccco1)c1ccc(F)cc1 | > 46.1 µg/mL |
| O=C(NC1CC1)c1cc2cc3ccccc3nc2s1 | 0.9 µg/mL (≈ 3.35 µM) |
| NC(=O)c1ccsc1NC(=O)CCc1ccccc1 | 37.4 µg/mL (≈ 136 µM) |
| Cc1cc(NC(=O)CSc2nc3cc(Cl)ccc3o2)no1 | 0.5 µg/mL (≈ 1.54 µM) |
| O=C1/C(=C/c2ccncc2)CCc2ccccc21 | 34.2 µg/mL (≈ 145 µM) |
| Cc1ccc(NC(=O)COC(=O)CNC(=O)C2CCCCC2)cc1S(=O)(=O)N(C)C | > 65.9 µg/mL |
| C(=C\c1ccccc1)/CNCC1CCCO1.Cl (stereo unspecified) | 38 µg/mL |
| Cc1nc2ccccc2c(=O)n1Cc1ccco1 | > 36 µg/mL |

| Compound | solubility kinetic |
| --- | --- |
| CCc1cc(=O)oc2cc(OCC(=O)N3CCC[C@H]3C(=O)O)ccc12 | > 51.8 µg/mL |
| Cc1csc(NC(=O)c2ccc(OCC3CCCO3)cc2)n1 (stereo unspecified) | 21 µg/mL (≈ 66 µM) |
| COc1cccc(-c2csc(NC(=O)Nc3ccccc3)n2)c1 | < 0.2 µg/mL |
| Cc1ccc(C(=O)N2C(=O)C(c3ccccc3)Oc3ccccc32)cc1 (stereo unspecified) | < 0.7 µg/mL |
| COc1cc(NC(=O)C(=O)N2CCN(C)CC2)c(OC)cc1Cl | > 51.3 µg/mL |
| COc1ccc(C)cc1S(=O)(=O)n1c([N+](=O)[O-])cnc1C | > 46.7 µg/mL |
| COc1cnc(-c2ccccc2)nc1Oc1ccc(Cl)cc1C | < 0.3 µg/mL |
| O=C1C(=O)N(C/C=C/c2ccccc2)c2ccccc21 | 2.3 µg/mL (≈ 8.74 µM) |
| NC(=O)c1ccc(NC(=O)CN2C(=O)NC3(CCCCCCC3)C2=O)cc1 | > 55.9 µg/mL |
| CC1CC(C)CN(C(=O)c2ccc3ncsc3c2)C1 (stereo unspecified) | > 41.2 µg/mL |
| COc1ccc(S(=O)(=O)N2CCN(C(=O)CC(C)C)CC2)cc1 | > 51.1 µg/mL |
| Cc1cc2c(c(=O)o1)C(CCC1CCCCC1)C(C#N)=C(N)O2 (stereo unspecified) | 8 µg/mL (≈ 25.4 µM) |
| COCC(C)NC(=O)c1cc2c(ccc3ccccc32)oc1=O (stereo unspecified) | 18.1 µg/mL (≈ 58.1 µM) |
| [O-][n+]1ccccc1/C=C/c1ccccc1 | > 29.6 µg/mL |
| Cc1cccc(OCCCCCN2CCOCC2)c1 | 29.9 µg/mL (≈ 114 µM) |
| CN1CCSc2ccc(C(=O)Nc3cccc(F)c3)cc21 | 1.4 µg/mL (≈ 4.63 µM) |
| O=C(CN1CCOCC1)N1c2ccccc2Sc2ccccc21 | > 49 µg/mL |
| CCCCCCN1C=CC=C/C1=C\C=C(C#N)C#N | 3.9 µg/mL (≈ 15.4 µM) |
| Cn1c(N)c(C(=O)Nc2ccc(-c3ccccc3)cc2)sc1=S | 0.6 µg/mL (≈ 1.76 µM) |
| COc1ccc(CNC(=O)COc2ccc(OC)cc2)cc1 | 35.8 µg/mL (≈ 119 µM) |
| Cc1cccnc1NC(=S)NC(=O)c1oc2ccccc2c1C | 4.7 µg/mL (≈ 14.4 µM) |
| Cc1nc2ccccc2n1Cc1ccccc1Br | 26 µg/mL (≈ 86.3 µM) |
| Cc1cccc(Nc2nc(CC(=O)O)cs2)c1 | 24.6 µg/mL (≈ 99.1 µM) |
| COc1ccc(OC)c(CNC(=O)C2CCN(S(C)(=O)=O)CC2)c1 | > 53.5 µg/mL |
| O=C(COC(=O)COc1ccccc1)Nc1ccc(Br)cc1Br | 2.2 µg/mL (≈ 4.97 µM) |

| Compound | solubility kinetic |
| --- | --- |
| Cc1cc(N2CCN(C(=O)c3ccco3)CC2)c2ccccc2n1 | 44.7 µg/mL (≈ 139 µM) |
| O=c1c2cc(Br)ccc2nc(-c2ccccc2)n1O | 39.4 µg/mL (≈ 124 µM) |
| OC(CNC1Cc2ccccc2C1)COc1ccc(Cl)cc1 (stereo unspecified) | > 47.7 µg/mL |
| CC(C)n1c(SCC(=O)NC2CC2)nnc1-c1ccco1 | > 46 µg/mL |
| Cn1c(=O)n(C)c2cc(NC(=O)CSc3ccccc3)ccc21 | > 49.1 µg/mL |
| CCCC(=O)Nc1ccc(C2C(=O)c3ccccc3C2=O)cc1 | > 46.1 µg/mL |
| COc1cccc(NC(=O)NCCCCc2ccccc2)c1 | 12.9 µg/mL (≈ 43.2 µM) |
| CN(C)c1ncnc(N(C)C)c1[N+](=O)[O-] | > 31.7 µg/mL |
| C=CCn1c(O)c(C(C)=NCCCN(C)C)c(=O)[nH]c1=O | > 44.2 µg/mL |
| CC(C)(C)OC(=O)NCCNC(=O)c1cccs1 | > 40.6 µg/mL |
| COCCCNC(=O)[C@H]1N2C(=O)c3ccccc3C2SC1(C)C (stereo partly specified) | 45.4 µg/mL (≈ 136 µM) |
| COc1ccc(NC(=O)O/N=C/c2ccccc2Cl)cc1 | 17.7 µg/mL (≈ 58.1 µM) |
| Cc1cc(C(=O)COC(=O)/C=C/c2cccc(F)c2)c(C)n1C | < 0.7 µg/mL |
| O=[N+]([O-])c1ccc(Cl)c(S(=O)(=O)/N=C(/Nc2cccnc2)c2ccccc2)c1 | > 62.5 µg/mL |
| COc1ccc(C(=O)CC(=O)Nc2ccc([N+](=O)[O-])cc2)cc1 | 2.6 µg/mL (≈ 8.27 µM) |
| N#Cc1cc(Nc2c(N)nc[nH]c2=O)c([N+](=O)[O-])cc1C#N | > 44.6 µg/mL |
| COc1cc2c(cc1OC)C(c1ccccc1C)CC(=O)N2 (stereo unspecified) | < 0.6 µg/mL |
| CN=C(c1ccco1)n1c(=S)nc(-c2ccco2)n(C)c1=S | 39.6 µg/mL (≈ 119 µM) |
| CCCCn1c(=O)[nH]c2c(oc3ccccc32)c1=O | 1.7 µg/mL (≈ 6.58 µM) |
| O=C(CNc1cc(S(=O)(=O)N2CCOCC2)ccc1N1CCOCC1)Nc1cccc(C(F)(F)F)c1 | 2.5 µg/mL (≈ 4.73 µM) |
| CN(C)/C=N/c1ncc(C(=O)OC(C)(C)C)s1 | > 38.3 µg/mL |
